# Test results reported in patent publication US20050137220A1 (Pharmacia Corporation, priority 2003, published 2005).
# Counter-ions that a name gives are not always drawn. Like-named read-outs stand apart in the source and are kept apart here.
# Assays:
# MK-2 = MK-2 (Homo sapiens, UniProt P49137); assay: Determination of MK-2 IC50 (phosphorylation of HSP-peptide, anion exchange resin capture assay); assay type: biochemical; settings: additional values are replicate IC50 experiments; mixture of stereoisomers implied unless otherwise noted; read-out: MK-2 Avg. IC50
# MK-2, sequence (P49137 whole entry, species assumed): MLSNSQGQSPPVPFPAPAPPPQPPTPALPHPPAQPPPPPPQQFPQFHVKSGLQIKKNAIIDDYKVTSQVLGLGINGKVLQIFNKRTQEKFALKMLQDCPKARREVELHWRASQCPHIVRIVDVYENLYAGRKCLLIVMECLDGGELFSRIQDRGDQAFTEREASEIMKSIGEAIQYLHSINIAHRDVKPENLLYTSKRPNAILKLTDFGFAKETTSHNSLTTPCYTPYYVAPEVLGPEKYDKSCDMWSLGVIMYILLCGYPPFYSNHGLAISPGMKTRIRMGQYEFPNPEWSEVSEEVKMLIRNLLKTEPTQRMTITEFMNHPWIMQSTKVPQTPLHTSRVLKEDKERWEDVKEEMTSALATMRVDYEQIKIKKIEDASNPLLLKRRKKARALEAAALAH
# U937 cells = assay: U937 Cell TNFα Release Assay; assay type: cell-based, human; settings: mixture of stereoisomers implied unless otherwise noted
# [1] = Homo sapiens, U-937, 4 h, LPS-stimulated differentiated U937 cells, TNFα by ELISA, read-out: TNF Release Assay Avg. IC50
# [2] = Homo sapiens, U-937, 4 h, read-out: TNF Release Assay Avg. IC50, LPS-stimulated differentiated U937 cells, TNFα by ELISA
# [3] = Homo sapiens, U-937, LPS-stimulated differentiated U937 cells, TNFα by ELISA, read-out: TNF Release Assay Avg. IC50
# [4] = read-out: TNF Release Assay Avg. IC50, LPS-stimulated differentiated U937 cells, TNFα by ELISA
# [5] = Homo sapiens, U-937, read-out: TNF Release Assay Avg. IC50, LPS-stimulated differentiated U937 cells, TNFα by ELISA
# [6] = read-out: TNF Release Assay Avg. IC50, LPS-stimulated differentiated U937 cells, TNFα by ELISA, trifluoroacetate
IC50 (MK-2),IC50 (U937 cells; [1]),IC50 (U937 cells; [3]),SMILES,other results
3.1 µM,–,2.18 µM,"COc1ccc2[nH]c3c(c2c1)CCC/C3=N/O [Example 25, (1Z)-6-methoxy-2,3,4,9-tetrahydro-1H-carbazol-1-one oxime]",–
4.52 µM,> 100 µM,–,"COc1ccc2c3c([nH]c2c1)C(C(=O)O)NCC3 (stereo not drawn) [Example 34, 7-methoxy-2,3,4,9-tetrahydro-1H-beta-carboline-1-carboxylic acid]",–
> 200 µM,53.2 µM,–,"COC(=O)C1NCC(C)c2c1[nH]c1ccc(OC)cc21 (stereo not drawn) [Example 189, methyl 6-methoxy-4-methyl-2,3,4,9-tetrahydro-1H-beta-carboline-1-carboxylate]",–
> 200 µM,–,> 100 µM,"COc1ccc2[nH]c3c(=O)n(N)c(=O)[nH]c3c2c1 [Example 266, 3-amino-8-methoxy-1H-pyrimido[5,4-b]indole-2,4(3H,5H)-dione]",–
15.8 µM,> 100 µM,–,"COc1ccc2[nH]c3c(c2c1)C(C)(C)CNC3C(=O)O (stereo not drawn) [Example 73, 6-methoxy-4,4-dimethyl-2,3,4,9-tetrahydro-1H-beta-carboline-1-carboxylic acid]",–
> 200 µM,> 100 µM,–,"O=C(O)C1c2[nH]c3ccccc3c2CCN1C(=O)c1ccc(Cl)cc1 (stereo not drawn) [Example 202, 2-(4-chlorobenzeyl)-2,3,4,9-tetrahydro-1H-beta-carboline-1-carboxylic acid]",–
15.5 µM,7.68 µM,–,"O=C(O)C1NCCc2c1[nH]c1ccc(OCc3ccccc3Cl)cc21 (stereo not drawn) [Example 72, 6-[(2-chlorobenzyl)oxy]-2,3,4,9-tetrahydro-1H-beta-carboline-1-carboxylic acid trifluoroacetate]",–
127 µM,≥ 100 µM,–,"COc1ccc2[nH]c3c(c2c1)CCNC3c1nnn[nH]1 (stereo not drawn) [Example 143, 6-methoxy-1-(1H-tetraazol-5-yl)-2,3,4,9-tetrahydro-1H-beta-carboline trifluoroacetate hydrate]",–
3.52 µM,42.4 µM,–,"COC(=O)c1cccc2c3c([nH]c12)CCNC3=O [Example 29, methyl 1-oxo-2,3,4,5-tetrahydro-1H-pyrido[4,3-b]indole-6-carboxylate]",–
> 200 µM,–,> 100 µM,"COc1ccc2[nH]c3c(=O)n(/N=C/c4ccccc4)c(=O)[nH]c3c2c1 [Example 265, 8-methoxy-3-{[(1E)-phenylmethylidene]amino}-1H-pyrimido[5,4-b]indole-2,4(3H,5H)-dione]",–
16.5 µM,–,13.9 µM,"COc1ccc2[nH]c3c(c2c1)CCC/C3=N\O (single isomer, unassigned) [Example 75, 6-methoxy-2,3,4,9-tetrahydro-1H-carbazol-1-one oxime]",–
108 µM,–,7.33 µM,"COc1ccc2[nH]c3c(c2c1)CCC(C)/C3=N/N (stereo not shown) [Example 134, 6-methoxy-2-methyl-2,3,4,9-tetrahydro-1H-carbazol-1-one hydrazone]",–
15 µM,–,45.7 µM,"COc1ccc2[nH]c3c(c2c1)CCNC3=O [Example 69, 6-methoxy-2,3,4,9-tetrahydro-1H-beta-carbolin-1-one]",–
17.9 µM,17.8 µM,–,"O=C(O)C1NCCc2c1[nH]c1ccc(OCc3cccc(Cl)c3)cc21 (stereo not drawn) [Example 80, 6-[(3-chlorobenzyl)oxy]-2,3,4,9-tetrahydro-1H-beta-carboline-1-carboxylic acid]",–
6.9 µM,–,2.89 µM,COc1ccc2[nH]c3c(c2c1)CCCCC3=NO [Example 49],–
> 200 µM,13.3 µM,–,"CCCC1CNC(C(=O)OC)c2[nH]c3ccc(OC)cc3c21 (stereo not drawn) [Example 188, methyl 6-methoxy-4-propyl-2,3,4,9-tetrahydro-1H-beta-carboline-1-carboxylate]",–
17 µM,–,23.2 µM,"O/N=C1\CCCc2c1[nH]c1ccc(I)cc21 [Example 77, 6-iodo-2,3,4,9-tetrahydro-1H-carbazol-1-one oxime]",–

IC50 (MK-2),IC50 (U937 cells; [1]),IC50 (U937 cells; [3]),SMILES,other results
167 µM,100 µM,100 µM,"CC(=O)Oc1ccc2[nH]c3c(c2c1)CCNC3C(=O)O (stereo not drawn) [Example 156, 6-(acetyloxy)-2,3,4,9-tetrahydro-1H-beta-carboline-1-carboxylic acid trifluoroacetate]",–
8 µM,> 100 µM,–,"CCOC(=O)COc1ccc2[nH]c3c(c2c1)CCNC3C(=O)O (stereo not drawn) [Example 53, 6-(2-ethoxy-2-oxoethoxy)-2,3,4,9-tetrahydro-1H-beta-carboline-1-carboxylic acid trifluoroacetate hydrate]",–
–,–,–,"COC(=O)C1c2[nH]c3ccc(O)cc3c2CCN1C (stereo not drawn) [Example 150, methyl 6-hydroxy-2-methyl-2,3,4,9-tetrahydro-1H-beta-carboline-1-carboxylate]",IC50 (U937 cells; [4]): 0.523 µM
–,–,> 100 µM,"COc1ccc2[nH]c3c(c2c1)CC(CO)NC3=O (stereo not drawn) [Example 37, 3-(hydroxymethyl)-6-methoxy-2,3,4,9-tetrahydro-1H-beta-carbolin-1-one]",–
–,–,–,"CCCCCCOC(=O)C1c2[nH]c3ccc(OC)cc3c2C2CCN1C2 (stereo not shown) [Example 93, hydrochloride]",IC50 (U937 cells; [5]): 9.65 µM
–,–,–,"O=C(O)C1NCCc2c1[nH]c1ccc(O)cc21 (stereo not drawn) [Example 33, 6-hydroxy-2,3,4,9-tetrahydro-1H-beta-carboline-1-carboxylic acid hydrochloride]",IC50 (U937 cells; [2]): > 100 µM
–,–,–,"O=C(O)C1NCCc2c1[nH]c1ccc(F)cc21 (stereo not drawn) [Example 94, 6-fluoro-2,3,4,9-tetrahydro-1H-beta-carboline-1-carboxylic acid trifluoroacetate]",IC50 (U937 cells; [2]): > 100 µM
–,–,–,"COC(=O)C1c2[nH]c3ccc(OC)cc3c2CCN1C (stereo not drawn) [Example 149, methyl 6-methoxy-2-methyl-2,3,4,9-tetrahydro-1H-beta-carboline-1-carboxylate]",IC50 (U937 cells; [2]): 8.25 µM
–,–,–,"COC(=O)C1NCCc2c1[nH]c1ccc(OC)cc21 (stereo not drawn) [Example 106, methyl 6-methoxy-2,3,4,9-tetrahydro-1H-beta-carboline-1-carboxylate hydrochloride]",IC50 (U937 cells; [2]): 26.1 µM
–,–,–,"COCCOC(=O)C1c2[nH]c3ccc(OC)cc3c2C2CCN1C2 (stereo not shown) [Example 35, hydrochloride]","IC50 (U937 cells; read-out: TNF Release Assay Avg. IC50, LPS-stimulated differentiated U937 cells, TNFα by ELISA, hydrochloride): 93.2 µM"
–,–,–,"CCCOC(=O)C1c2[nH]c3ccc(OC)cc3c2C2CCN1C2 (stereo not shown) [Example 61, propyl 7-methoxy-3,4,5,10-tetrahydro-1H-2,5-methanoazepino[3,4-b]indole-1-carboxylate trifluoroacetate]",IC50 (U937 cells; [6]): 0.879 µM
–,–,–,"COc1ccc2[nH]c3c(c2c1)C1CCN(C1)C3C(=O)OCc1ccccc1 (stereo not shown) [Example 31, benzyl 7-methoxy-3,4,5,10-tetrahydro-1H-2,5-methanoazepino[3,4-b]indole-1-carboxylate trifluoroacetate]",IC50 (U937 cells; [6]): 46.2 µM
–,–,16.3 µM,"COC(=O)C1c2[nH]c3ccc(OC)cc3c2C2CCN1C2 (stereo not shown) [Example 58, methyl 7-methoxy-3,4,5,10-tetrahydro-1H-2,5-methanoazepino[3,4-b]indole-1-carboxylate trifluoroacetate]",–
–,15.3 µM,–,CSc1ccc2[nH]c3c(c2c1)C1CCN(C1)C3C(=O)O (stereo not shown) [Example 50],–
–,–,–,"NC(=O)c1ccc2[nH]c3c(c2c1)CCNC3C(=O)O (stereo not drawn) [Example 88, 6-(aminocarbonyl)-2,3,4,9-tetrahydro-1H-beta-carboline-1-carboxylic acid trifluoroacetate hydrate]",IC50 (U937 cells; [2]): > 100 µM
–,–,–,"COC(=O)C1c2[nH]c3ccc(O)cc3c2C2CCN1C2 (stereo not shown) [Example 40, methyl 7-hydroxy-3,4,5,10-tetrahydro-1H-2,5-methanoazepino[3,4-b]indole-1-carboxylate hydrochloride]",IC50 (U937 cells; [5]): 25.5 µM

SMILES,IC50 (MK-2),IC50 (U937 cells; [1]),IC50 (U937 cells; [3]),other results
"CCCCOc1ccc2[nH]c3c(c2c1)CCNC3C(=O)O (stereo not drawn) [Example 60, 6-butoxy-2,3,4,9-tetrahydro-1H-beta-carboline-1-carboxylic acid]",10.1 µM,> 100 µM,–,–
"COC(=O)C1NCCc2c1[nH]c1ccc(OCc3ccccc3)cc21 (stereo not drawn) [Example 175, methyl 6-(benzyloxy)-2,3,4,9-tetrahydro-1H-beta-carboline-1-carboxylate hydrochloride]",> 200 µM,–,–,IC50 (U937 cells; [2]): 26.5 µM
"CCCC1CNC(C(=O)O)c2[nH]c3ccc(OC)cc3c21 (stereo not drawn) [Example 55, 6-methoxy-4-propyl-2,3,4,9-tetrahydro-1H-beta-carboline-1-carboxylic acid]",8.47 µM,–,–,IC50 (U937 cells; [2]): > 100 µM
"COC(=O)C1c2[nH]c3ccc(OCc4ccccc4)cc3c2CCN1C (stereo not drawn) [Example 176, methyl 6-(benzyloxy)-2-methyl-2,3,4,9-tetrahydro-1H-beta-carboline-1-carboxylate]",> 200 µM,–,–,IC50 (U937 cells; [2]): 36.4 µM
"COc1ccc2[nH]c3c(c2c1)CC(CCCNCc1ccccc1)NC3=O (stereo not drawn) [Example 62, 3-[3-(benzylamino)propyl]-6-methoxy-2,3,4,9-tetrahydro-1H-beta-carbolin-1-one trifluoroacetate]",10.5 µM,–,24.9 µM,–
"COC(=O)C1c2[nH]c3ccc(O)cc3c2CCN1C (stereo not drawn) [Example 129, methyl 6-hydroxy-2-methyl-2,3,4,9-tetrahydro-1H-beta-carboline-1-carboxylate]",98.7 µM,–,–,IC50 (U937 cells; [4]): 0.523 µM
"O=C(O)C1NCCc2c1[nH]c1ccc(OCCCCCl)cc21 (stereo not drawn) [Example 79, 6-(4-chlorobutoxy)-2,3,4,9-tetrahydro-1H-beta-carboline-1-carboxylic acid hydrochloride]",17.4 µM,> 100 µM,–,–
